Experimental data from patent publication US20240109917A1 (ACTELION PHARMACEUTICALS LTD, priority 2020, published 2024).

Experiments:
[1] = target: Tb-labeled inactive PDGFRβ (Homo sapiens (Human), UniProt P09619); assay: PDGFRβ LanthaScreen Assay; assay type: binding; details: read-out: PDGFR Lantha IC50
[2] = target: PDGFRβ (Rattus norvegicus (Rat), UniProt Q05030); assay: PDGFRβ Cellular Assay (PDGFRb P-Y751 HTRF in A10 cells stimulated with PDGF-BB); assay type: cell-based; details: read-out: PDGFR Cellular IC50
Procedure, shortened: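 Phospho-Y751 PDGFRβ was measured by HTRF in lysates of A10 rat cells. Cells received compound for 3 hours before PDGF-BB stimulation (100 ng/mL working stock).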

[3] = target: VEGFR2, unphosphorylated (Homo sapiens (Human), UniProt P35968); assay: VEGFR ADP GLO Assay; assay type: biochemical
Chain of VEGFR2, unphosphorylated (P35968 20-1356): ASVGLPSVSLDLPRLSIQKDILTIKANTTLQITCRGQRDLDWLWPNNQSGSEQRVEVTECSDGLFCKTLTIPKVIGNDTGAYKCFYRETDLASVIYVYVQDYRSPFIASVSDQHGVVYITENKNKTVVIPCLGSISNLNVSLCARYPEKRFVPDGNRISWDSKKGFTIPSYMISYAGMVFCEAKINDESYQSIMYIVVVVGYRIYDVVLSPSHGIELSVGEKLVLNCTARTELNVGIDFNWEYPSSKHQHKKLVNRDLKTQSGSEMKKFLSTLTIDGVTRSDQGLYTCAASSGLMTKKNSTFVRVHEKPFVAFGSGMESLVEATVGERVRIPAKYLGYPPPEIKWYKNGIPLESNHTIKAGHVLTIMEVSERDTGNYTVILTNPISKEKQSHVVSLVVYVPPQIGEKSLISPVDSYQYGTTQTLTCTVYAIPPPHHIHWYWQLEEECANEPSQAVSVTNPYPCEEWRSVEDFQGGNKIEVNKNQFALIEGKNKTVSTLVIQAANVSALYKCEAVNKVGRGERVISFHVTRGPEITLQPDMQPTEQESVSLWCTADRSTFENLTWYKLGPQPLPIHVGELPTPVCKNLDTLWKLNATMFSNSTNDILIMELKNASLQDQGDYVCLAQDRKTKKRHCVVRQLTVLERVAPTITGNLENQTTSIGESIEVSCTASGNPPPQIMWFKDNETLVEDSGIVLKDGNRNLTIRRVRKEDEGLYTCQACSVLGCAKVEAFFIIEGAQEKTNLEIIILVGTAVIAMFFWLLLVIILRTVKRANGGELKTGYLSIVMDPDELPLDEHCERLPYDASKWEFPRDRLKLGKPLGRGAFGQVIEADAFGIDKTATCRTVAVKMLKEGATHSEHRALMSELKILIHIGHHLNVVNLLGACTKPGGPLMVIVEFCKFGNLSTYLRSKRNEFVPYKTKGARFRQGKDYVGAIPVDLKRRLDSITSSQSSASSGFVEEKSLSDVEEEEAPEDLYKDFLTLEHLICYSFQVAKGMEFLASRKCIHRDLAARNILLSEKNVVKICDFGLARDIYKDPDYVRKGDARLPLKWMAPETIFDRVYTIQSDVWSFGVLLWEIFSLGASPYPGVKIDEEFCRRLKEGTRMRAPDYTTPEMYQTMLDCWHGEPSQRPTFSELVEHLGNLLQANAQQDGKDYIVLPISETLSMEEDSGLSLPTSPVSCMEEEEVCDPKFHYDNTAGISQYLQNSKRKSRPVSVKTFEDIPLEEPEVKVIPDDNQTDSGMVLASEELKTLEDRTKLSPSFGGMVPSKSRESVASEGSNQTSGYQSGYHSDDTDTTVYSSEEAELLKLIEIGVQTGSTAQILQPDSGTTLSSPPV

Chain of Tb-labeled inactive PDGFRβ (P09619 33-1106): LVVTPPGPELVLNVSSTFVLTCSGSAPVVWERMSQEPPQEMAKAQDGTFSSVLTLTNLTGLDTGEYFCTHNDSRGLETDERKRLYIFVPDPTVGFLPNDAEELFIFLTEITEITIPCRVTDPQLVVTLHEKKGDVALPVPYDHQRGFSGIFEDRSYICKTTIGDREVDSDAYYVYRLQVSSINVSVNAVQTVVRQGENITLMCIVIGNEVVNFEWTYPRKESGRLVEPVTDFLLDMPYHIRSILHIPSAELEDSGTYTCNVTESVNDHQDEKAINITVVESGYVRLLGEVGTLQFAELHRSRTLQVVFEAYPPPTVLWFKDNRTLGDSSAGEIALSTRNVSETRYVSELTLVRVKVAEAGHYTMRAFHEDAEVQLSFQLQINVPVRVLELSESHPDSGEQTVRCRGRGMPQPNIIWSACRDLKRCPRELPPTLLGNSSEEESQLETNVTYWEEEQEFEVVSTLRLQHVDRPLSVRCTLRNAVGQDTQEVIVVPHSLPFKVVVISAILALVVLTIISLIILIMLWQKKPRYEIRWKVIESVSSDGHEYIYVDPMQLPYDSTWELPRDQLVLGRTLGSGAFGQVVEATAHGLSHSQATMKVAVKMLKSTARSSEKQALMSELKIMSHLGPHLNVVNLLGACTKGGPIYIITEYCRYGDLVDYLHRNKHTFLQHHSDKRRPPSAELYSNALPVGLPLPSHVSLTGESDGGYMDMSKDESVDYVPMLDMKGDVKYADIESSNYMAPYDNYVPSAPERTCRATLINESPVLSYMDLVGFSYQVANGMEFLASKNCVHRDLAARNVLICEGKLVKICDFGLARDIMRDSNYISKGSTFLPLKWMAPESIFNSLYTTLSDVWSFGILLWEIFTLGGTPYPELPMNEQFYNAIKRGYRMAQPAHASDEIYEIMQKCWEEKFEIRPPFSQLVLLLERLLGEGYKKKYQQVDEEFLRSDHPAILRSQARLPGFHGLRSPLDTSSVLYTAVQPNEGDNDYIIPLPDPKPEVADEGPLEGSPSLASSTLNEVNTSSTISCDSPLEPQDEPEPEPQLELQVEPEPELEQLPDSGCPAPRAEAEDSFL
Chain of PDGFRβ (Q05030 32-1097): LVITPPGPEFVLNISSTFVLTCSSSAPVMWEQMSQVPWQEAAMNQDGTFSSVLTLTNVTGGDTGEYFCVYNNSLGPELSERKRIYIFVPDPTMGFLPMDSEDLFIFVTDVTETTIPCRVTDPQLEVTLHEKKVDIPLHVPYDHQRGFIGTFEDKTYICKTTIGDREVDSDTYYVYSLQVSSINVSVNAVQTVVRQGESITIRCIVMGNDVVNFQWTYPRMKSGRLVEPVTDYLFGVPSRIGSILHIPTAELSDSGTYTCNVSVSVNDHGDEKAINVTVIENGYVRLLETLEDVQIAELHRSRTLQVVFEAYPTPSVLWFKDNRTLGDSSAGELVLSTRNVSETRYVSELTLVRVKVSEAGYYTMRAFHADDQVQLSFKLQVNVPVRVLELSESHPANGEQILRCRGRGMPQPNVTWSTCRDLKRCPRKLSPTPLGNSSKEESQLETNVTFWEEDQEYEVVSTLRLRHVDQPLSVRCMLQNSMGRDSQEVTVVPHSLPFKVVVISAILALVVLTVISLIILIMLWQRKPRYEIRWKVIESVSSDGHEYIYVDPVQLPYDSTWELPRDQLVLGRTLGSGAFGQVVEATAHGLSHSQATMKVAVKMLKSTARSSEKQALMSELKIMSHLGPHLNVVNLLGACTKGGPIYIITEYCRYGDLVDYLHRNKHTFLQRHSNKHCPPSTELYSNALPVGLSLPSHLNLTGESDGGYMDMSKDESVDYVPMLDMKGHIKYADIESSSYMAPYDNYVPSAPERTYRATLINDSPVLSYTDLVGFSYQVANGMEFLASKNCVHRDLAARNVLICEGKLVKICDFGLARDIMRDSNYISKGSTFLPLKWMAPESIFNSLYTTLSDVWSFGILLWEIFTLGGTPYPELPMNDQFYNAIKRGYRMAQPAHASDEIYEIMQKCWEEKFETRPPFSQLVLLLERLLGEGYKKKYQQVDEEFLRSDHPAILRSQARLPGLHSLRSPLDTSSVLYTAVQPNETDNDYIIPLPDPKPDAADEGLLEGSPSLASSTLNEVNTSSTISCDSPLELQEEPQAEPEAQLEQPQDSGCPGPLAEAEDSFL

Row | SMILES | IC50 [1] | IC50 [2] | IC50 [3]
1 | Cc1ncc(NC(=O)CN2CCC(C)(C)C2)cc1NC(=O)c1cnn2cc(-c3cnn(CCO)c3)sc12 [Example 28, N-(5-(2-(3,3-dimethylpyrrolidin-1-yl)acetamido)-2-methylpyridin-3-yl)-2-(1-(2-hydroxyethyl)-1H-pyrazol-4-yl)pyrazolo[5,1-b]thiazole-7-carboxamide] | 0.0042 µM | 0.0136 µM | > 7.5 µM
2 | COc1ncccc1-c1cn2ncc(C(=O)Nc3cc(NC(=O)CN4C[C@H](C)O[C@@H](C)C4)cnc3C)c2s1 (relative stereo) [Example 368, N-(5-(2-(trans-2,6-dimethylmorpholino)acetamido)-2-methylpyridin-3-yl)-2-(2-methoxypyridin-3-yl)pyrazolo[5,1-b]thiazole-7-carboxamide] | 0.0024 µM | 0.0037 µM | > 7.5 µM
3 | Cc1ncc(NC(=O)C2CCN(C(C)C)C2)cc1NC(=O)c1cnn2cc(-c3cn(C)nc3C)sc12 (stereo not drawn) [Example 355, 2-(1,3-dimethyl-1H-pyrazol-4-yl)-N-(5-(1-isopropylpyrrolidine-3-carboxamido)-2-methylpyridin-3-yl)pyrazolo[5,1-b]thiazole-7-carboxamide] | 0.0113 µM | 0.0503 µM | > 7.5 µM
4 | COc1ccc(-c2cn3ncc(C(=O)Nc4cc(NC(=O)CN5CC(C)(C)C5)cnc4C)c3s2)cn1 [Example 395, N-(5-(2-(3,3-dimethylazetidin-1-yl)acetamido)-2-methylpyridin-3-yl)-2-(6-methoxypyridin-3-yl)pyrazolo[5,1-b]thiazole-7-carboxamide] | 0.0073 µM | 0.0062 µM | > 7.5 µM
5 | COCCn1cc(-c2cn3ncc(C(=O)Nc4cc(NC(=O)C5CCN(C(C)C)C5)cnc4C)c3s2)cn1 (stereo not drawn) [Example 345, N-(5-(1-isopropylpyrrolidine-3-carboxamido)-2-methylpyridin-3-yl)-2-(1-(2-methoxyethyl)-1H-pyrazol-4-yl)pyrazolo[5,1-b]thiazole-7-carboxamide] | 0.0569 µM | 0.222 µM | > 7.5 µM
6 | COCCn1cc(-c2cn3ncc(C(=O)Nc4cc(NC(=O)CN5CCCCC5)cnc4C)c3s2)cn1 [Example 338, 2-(1-(2-methoxyethyl)-1H-pyrazol-4-yl)-N-(2-methyl-5-(2-(piperidin-1-yl)acetamido)pyridin-3-yl)pyrazolo[5,1-b]thiazole-7-carboxamide] | 0.0048 µM | 0.0046 µM | > 7.5 µM
7 | COc1ncccc1-c1cn2ncc(C(=O)Nc3cc(NC(=O)CN4C[C@H](CO)OC(C)(C)C4)cnc3C)c2s1 [Example 379, (R)—N-(5-(2-(6-(hydroxymethyl)-2,2-dimethylmorpholino)acetamido)-2-methylpyridin-3-yl)-2-(2-methoxypyridin-3-yl)pyrazolo[5,1-b]thiazole-7-carboxamide] | 0.0027 µM | 0.0092 µM | > 2.5 µM
8 | Cc1ncc(NC(=O)C2CCN(C(C)C)C2)cc1NC(=O)c1cnn2cc(-c3cnn4c3OCCC4)sc12 (stereo not drawn) [Example 350, 2-(6,7-dihydro-5H-pyrazolo[5,1-b][1,3]oxazin-3-yl)-N-(5-(1-isopropylpyrrolidine-3-carboxamido)-2-methylpyridin-3-yl)pyrazolo[5,1-b]thiazole-7-carboxamide] | 0.0041 µM | 0.0733 µM | 6.35 µM
9 | Cc1ncc(NC(=O)CN2CCCC23CCC3)cc1NC(=O)c1cnn2cc(-c3cnn(CCO)c3)sc12 [Example 29, N-(5-(2-(5-azaspiro[3.4]octan-5-yl)acetamido)-2-methylpyridin-3-yl)-2-(1-(2-hydroxyethyl)-1H-pyrazol-4-yl)pyrazolo[5,1-b]thiazole-7-carboxamide] | 0.0034 µM | 0.005 µM | > 7.5 µM
10 | Cc1ncc(NC(=O)CN2CC(C)(C)C2)cc1NC(=O)c1cnn2cc(-c3cccnc3C)sc12 [Example 390, N-(5-(2-(3,3-dimethylazetidin-1-yl)acetamido)-2-methylpyridin-3-yl)-2-(2-methylpyridin-3-yl)pyrazolo[5,1-b]thiazole-7-carboxamide] | 0.0101 µM | 0.0055 µM | > 7.5 µM
11 | COc1ncccc1-c1cn2ncc(C(=O)Nc3cc(NC(=O)CN4CC(C)(C)C4)cnc3C)c2s1 [Example 369, N-(5-(2-(3,3-dimethylazetidin-1-yl)acetamido)-2-methylpyridin-3-yl)-2-(2-methoxypyridin-3-yl)pyrazolo[5,1-b]thiazole-7-carboxamide] | 0.0014 µM | 0.0016 µM | > 7.5 µM
12 | COCCn1cc(-c2cn3ncc(C(=O)Nc4cc(NC(=O)[C@@H]5CCCN5C(C)C)cnc4C)c3s2)cn1 [Example 343, (S)—N-(5-(1-isopropylpyrrolidine-2-carboxamido)-2-methylpyridin-3-yl)-2-(1-(2-methoxyethyl)-1H-pyrazol-4-yl)pyrazolo[5,1-b]thiazole-7-carboxamide] | 0.0848 µM | 0.0479 µM | > 7.5 µM
